Source: the supplement of paper PMC4862054

Tests used:
Conditions in all cases: incubation time: 72 h
[1] = tested on: BT-474; assay: normalised response (% of control), CellTiter-Glo; higher = more viable cells (100 = DMSO, 0 = benzethonium chloride kill control)
Method in brief: (§1)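 Two readouts were taken after 72 h: CellTox Green fluorescence (485/520 nm) first, then CellTiter-Glo luminescence after 10 min at room temperature. Breast cancer cell lines had been seeded as 20 µl suspension into 384-well plates holding compound at 5 concentrations in 10-fold steps across a compound-specific 10,000-fold range. Each value is a normalised signal at a single concentration, with plates scaled to 0.1 % DMSO (100) and a positive kill control (0).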

[2] = tested on: BT-549; assay: as above
Method in brief: as §1

[3] = tested on: CAL-120; assay: as above
Method in brief: as §1

[4] = tested on: CAL-148; assay: as above
Method in brief: as §1

[5] = tested on: CAL-51; assay: as above
Method in brief: as §1

[6] = tested on: CAL-85-1; assay: as above
Method in brief: as §1

[7] = tested on: DU-4475; assay: as above
Method in brief: as §1

[8] = tested on: HCC1143; assay: as above
Method in brief: as §1

[9] = tested on: HCC1599; assay: as above
Method in brief: as §1

[10] = tested on: HCC1937; assay: as above
Method in brief: as §1

[11] = tested on: HDQ-P1; assay: as above
Method in brief: as §1

[12] = tested on: Hs578T; assay: as above
Method in brief: as §1

[13] = tested on: MCF-10A; assay: as above
Method in brief: as §1

[14] = tested on: MDA-MB-231; assay: as above
Method in brief: as §1

[15] = tested on: MDA-MB-436; assay: as above
Method in brief: as §1

[16] = tested on: MDA-MB-453; assay: as above
Method in brief: as §1

[17] = tested on: MDA-MB-468; assay: as above
Method in brief: as §1

[18] = tested on: MFM-223; assay: as above
Method in brief: as §1

[19] = tested on: SK-BR-3; assay: as above
Method in brief: as §1

[20] = tested on: BT-474; assay: normalised response (% of control), CellTox Green; higher = less cell death (100 = DMSO, 0 = benzethonium chloride kill control)
Method in brief: as §1

[21] = tested on: BT-549; assay: as above
Method in brief: as §1

[22] = tested on: CAL-120; assay: as above
Method in brief: as §1

[23] = tested on: CAL-148; assay: as above
Method in brief: as §1

[24] = tested on: CAL-51; assay: as above
Method in brief: as §1

[25] = tested on: CAL-85-1; assay: as above
Method in brief: as §1

[26] = tested on: DU-4475; assay: as above
Method in brief: as §1

[27] = tested on: HCC1143; assay: as above
Method in brief: as §1

[28] = tested on: HCC1599; assay: as above
Method in brief: as §1

[29] = tested on: HCC1937; assay: as above
Method in brief: as §1

[30] = tested on: HDQ-P1; assay: as above
Method in brief: as §1

[31] = tested on: Hs578T; assay: as above
Method in brief: as §1

[32] = tested on: MCF-10A; assay: as above
Method in brief: as §1

[33] = tested on: MDA-MB-231; assay: as above
Method in brief: as §1

[34] = tested on: MDA-MB-436; assay: as above
Method in brief: as §1

[35] = tested on: MDA-MB-453; assay: as above
Method in brief: as §1

[36] = tested on: MFM-223; assay: as above
Method in brief: as §1

SMILES | normalised response [1] [%] | normalised response [2] [%] | normalised response [3] [%] | normalised response [4] [%] | normalised response [5] [%] | normalised response [6] [%] | normalised response [7] [%] | normalised response [8] [%] | normalised response [9] [%] | normalised response [10] [%] | normalised response [11] [%] | normalised response [12] [%] | normalised response [13] [%] | normalised response [14] [%] | normalised response [15] [%] | normalised response [16] [%] | normalised response [17] [%] | normalised response [18] [%] | normalised response [19] [%] | normalised response [20] [%] | normalised response [21] [%] | normalised response [22] [%] | normalised response [23] [%] | normalised response [24] [%] | normalised response [25] [%] | normalised response [26] [%] | normalised response [27] [%] | normalised response [28] [%] | normalised response [29] [%] | normalised response [30] [%] | normalised response [31] [%] | normalised response [32] [%] | normalised response [33] [%] | normalised response [34] [%] | normalised response [35] [%] | normalised response [36] [%]
CC[C@H](CO)Nc1nc(NCc2ccccc2)c2ncn(C(C)C)c2n1 [Seliciclib] (1 nM) | 100 | 97.2 | 96.7 | 106 | 88.7 | 100 | 106 | 101 | 92.9 | 97.3 | 102 | 100 | 97.1 | 107 | 104 | 104 | 98 | 104 | 107 | – | – | – | – | – | – | – | – | – | – | – | – | – | – | – | – | –
CC[C@H](CO)Nc1nc(NCc2ccccc2)c2ncn(C(C)C)c2n1 [Seliciclib] (1000 nM) | 96.9 | 95.8 | 97.4 | 104 | 80.4 | 112 | 101 | 103 | 111 | 105 | 101 | 109 | 95.3 | 104 | 107 | 115 | 110 | 109 | 106 | 101 | 117 | 101 | 106 | 101 | 95.5 | 99.2 | 107 | 103 | 125 | 92.7 | 86.4 | 101 | 114 | 84.6 | 102 | 95.6
C=CCN(/C=C1/C(=O)O[C@H](COC)[C@@]2(C)C1=C(O)C(=O)C1=C2[C@H](OC(C)=O)C[C@]2(C)C(=O)CC[C@@H]12)CC=C [Sonolisib] (1 nM) | 107 | 103 | 107 | 110 | 75.2 | 103 | 103 | 102 | 116 | 101 | 95.6 | 105 | 108 | 109 | 102 | 119 | 104 | 107 | 109 | – | – | – | – | – | – | – | – | – | – | – | – | – | – | – | – | –
C=CCN(/C=C1/C(=O)O[C@H](COC)[C@@]2(C)C1=C(O)C(=O)C1=C2[C@H](OC(C)=O)C[C@]2(C)C(=O)CC[C@@H]12)CC=C [Sonolisib] (10 nM) | 112 | 102 | 101 | 107 | 108 | 102 | 106 | 107 | 95.1 | 106 | 94.4 | 97.9 | 105 | 102 | 111 | 104 | 101 | 109 | 123 | – | – | – | – | – | – | – | – | – | – | – | – | – | – | – | – | –
O=[N+]([O-])c1ccc2c(c1)S(=O)(=O)C=C2 [Stattic] (5 nM) | 98.6 | 105 | 95.3 | 103 | 102 | 95.5 | 106 | 101 | 114 | 94.6 | 98.8 | 104 | 111 | 96.2 | 99.5 | 106 | 99.8 | 101 | 99.3 | – | – | – | – | – | – | – | – | – | – | – | – | – | – | – | – | –
CC(C)n1cnc2c(NCCc3ccc(O)cc3)nc(-c3csc4ccccc34)nc21 [StemRegenin 1] (1 nM) | 102 | 96.7 | 96.6 | 98.7 | 81.3 | 99.2 | 102 | 98.1 | 99.6 | 98.6 | 103 | 104 | 106 | 99.7 | 105 | 115 | 92.6 | 103 | 108 | – | – | – | – | – | – | – | – | – | – | – | – | – | – | – | – | –
CC(C)n1cnc2c(NCCc3ccc(O)cc3)nc(-c3csc4ccccc34)nc21 [StemRegenin 1] (10 nM) | 105 | 92.2 | 97.4 | 109 | 68.8 | 96.9 | 100 | 106 | 79.5 | 96.3 | 99.6 | 109 | 105 | 97.5 | 96.1 | 103 | 97.3 | 102 | 98.3 | – | – | – | – | – | – | – | – | – | – | – | – | – | – | – | – | –
